Usually EC50 stands for the concentration needed to bring the measured effect to its halfway point. Read a low EC50 as higher potency in that assay.

Data set [1] concerns the target T1, PKC-ε (Homo sapiens, UniProt Q02156).
T1 sequence (Q02156 1-737): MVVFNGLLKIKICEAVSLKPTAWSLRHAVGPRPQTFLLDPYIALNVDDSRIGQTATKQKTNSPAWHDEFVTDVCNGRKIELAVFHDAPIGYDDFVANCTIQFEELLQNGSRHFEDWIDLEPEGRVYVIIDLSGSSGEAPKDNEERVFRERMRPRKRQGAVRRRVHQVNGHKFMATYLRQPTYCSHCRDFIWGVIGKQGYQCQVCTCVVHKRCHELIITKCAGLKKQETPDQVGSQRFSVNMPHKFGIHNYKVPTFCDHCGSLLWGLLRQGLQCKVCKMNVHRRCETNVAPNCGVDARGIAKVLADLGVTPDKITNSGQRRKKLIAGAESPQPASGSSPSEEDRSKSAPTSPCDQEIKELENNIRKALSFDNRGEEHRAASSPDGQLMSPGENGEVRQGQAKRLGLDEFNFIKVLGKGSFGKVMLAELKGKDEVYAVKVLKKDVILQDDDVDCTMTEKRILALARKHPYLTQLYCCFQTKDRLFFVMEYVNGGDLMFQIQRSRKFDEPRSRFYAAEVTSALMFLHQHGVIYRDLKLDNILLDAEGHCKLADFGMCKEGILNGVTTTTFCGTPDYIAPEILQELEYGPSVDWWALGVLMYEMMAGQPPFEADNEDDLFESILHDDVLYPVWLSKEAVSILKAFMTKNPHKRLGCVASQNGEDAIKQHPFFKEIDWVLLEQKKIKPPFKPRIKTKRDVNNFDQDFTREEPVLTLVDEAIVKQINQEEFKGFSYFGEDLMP
Nature of the data set: Activation of purified PKC isozymes, radiometric: PKC-ε. The class given is biochemical. The settings on record: for Specificity ε/α: Activation of PKC-ε ÷ activation or inhibition of PKCα at 3 × EC50. As for the experimental part:
(§1) To measure PKC, 10 μl of cell homogenate or purified PKC isoform was incubated for 15 min at 37° C. in the presence of 10 μM histones, 4.89 mM CaCl2, 1.2 μg/μl phosphatidyl-L-serine, 0.18 μg/μl 1,2-dioctanoyl-sn-glycerol, 10 mM MgCl2, 20 mM HEPES (pH 7.4), 0.8 mM EDTA, 4 mM EGTA, 4% glycerol, 8 μg/ml aprotinin, 8 μg/ml leupeptin, and 2 mM benzamidine. [γ32P]ATP (0.5 μCi) was added and 32P-phosphoprotein formation was measured by adsorption onto phosphocellulose as described previously. See Nelson et al., J. Neurochemistry, 1995, 65: 2350-2357.
(§2) PKC activity of each compound was measured in the absence of diacylglycerol and phosphatidylserine and PKC-δ and PKC-ε were measured in the absence of added EGTA and CaCl2, as described by Kanno et al., J. Lipid Res., 2006, 47: 1146-1156. Low concentrations of Ca^2+ were needed because high Ca^2+ can interact with the PKC phosphatidylserine binding site and prevents activation. […] To determine their PKC isoform specificity, the compounds were pre-incubated with purified isoforms of PKC for five minutes and the PKC activity was measured radiometrically.
(§3) The activation and PKC isozyme specificity of DCPLA-ethyl ester was measured following the procedures in Example 1(B) and (C), except that 9 ng of the purified isozyme was used and it was pre-incubated for 5 minutes at room temperature (FIG. 3). PKC-ε activation by DCPLA-tert-butyl ester and DCPLA-retinyl ester was measured in the same manner as DCPLA-ethyl ester (FIG. 3).
The EC50 values, PKC specificity, and activation for a select number of DCPLA esters was determined (see Table 1). EC50 values were determined by measuring the lowest concentration that activates by 50% of maximum activation. […] The specificity and activation of PKC by the various esters of DCPLA were calculated from the measurements of activation of PKC isozymes.

In the next data set the target is PKCα (Homo sapiens, UniProt P17252). The experiment in a line: Activation of purified PKC isozymes, radiometric: PKC-α. Format: biochemical. The protocol: To measure PKC activity, 10 μg of protein from either cytosol or membrane was incubated for 15 min at 37° C. in the presence of 10 μM histones, 4.89 mM CaCl2, 1.2 μg/μl phosphatidyl-L-serine, 0.18 μg/μl 1,2-dioctanoyl-sn-glycerol, 10 mM MgCl2, 20 mM HEPES (pH 7.4), 0.8 mM EDTA, 4 mM EGTA, 4% glycerol, 8 μg/ml aprotinin, 8 μg/ml leupeptin, 2 mM benzamidine, and 0.5 μCi of [γ-^32P]ATP. [^32P]Phosphoprotein formation was measured by adsorption onto phosphocellulose as described previously. See Nelson et al. (2009) J Biol Chem 284, 34514-34521. For measurements of activation by RA, PKC activity was measured in the absence of diacylglycerol (DAG) and phosphatidylserine, as described by Nelson et al. (2009) J Biol Chem 284, 34514-34521. PKC-δ and PKC-ε were measured in the absence of added EGTA and CaCl^2, as described by Kanno et al. (2006) J Lipid Res 47, 1146-1156. The enzyme was provided as a purified isozyme for in vitro experiments.
as §1, §2, §3

The subject of data set [2] is rat primary hippocampal neurons. The experiment in a line: Neurotoxic effect of Aβ1-42 assemblies, MTT viability. Format: cell-based. The settings on record: 20 hr. As for the experimental part: Viability of cells was measured by MTT assay. MTT (3-(4,5-Dimethylthiazol-2-yl)-2,5-diphenyltetrazolium bromide) is a tetrazolium salt that is cleaved to formazan by the succinate dehydrogenase, which is only active in viable cells. After solubilization of the formazan, the amount of dye can be quantified with a microplate reader at 570 nm along with a reference of 630 nm. For MTT assay, 5×104 primary rat hippocampal neurons from 18-day-old embryonic Sprague-Dawley rat brains were plated on each well of 24-well plates coated with poly-D-lysine. After treatment, the cells were washed with 1×PBS and were incubated with 200 μl of 1 mg/ml MTT solution (Sigma, USA) at 37° C. for 2 hr. Then the MTT-solution was removed and the cells were lysed with 200 μl isopropanol containing 0.04 M HCl and 160 mM NaOH for 10 min. Finally, the reading was done at 570 nm and 630 nm. All the samples were done in triplicates and the data was represented as the percentage of control.
To assess the neurotoxic effect of different sized oligomers, rat primary hippocampal neurons were treated with variable concentrations of these Aβ1-42 species for 20 hr. Viability of the treated cells was compared to untreated cells using the MTT assay.

Data set [3] deals with PKC-ε. Nature of the data set: PKC-ε translocation to membrane in SH-SY5Y cells (Western blot). The conditions noted are these: ASPD; ADDL at 20-fold higher concentrations. The class given is cell-based, human. The protocol:
Cells were harvested in homogenizing buffer containing 10 mM Tris-Cl (pH 7.4), 1 mM PMSF (phenylmethylsulfonyl fluoride), 1 mM EGTA, 1 mM EDTA, 50 mM NaF, and 20 μM leupeptin and were lysed by sonication. The homogenate was centrifuged at 100,000×g for 15 min at 4° C. to obtain the cytosolic fraction (supernatant) and membrane (pellet). The pellet was resuspended in the homogenizing buffer by sonication. Protein concentration was measured using the Coomassie Plus (Bradford) Protein Assay kit (Pierce, USA). Following quantification, 20 μg of protein from each sample was subjected to SDS-PAGE analysis in 4-20% gradient Tris-Glycine gel (Invitrogen, USA). The separated protein was then transferred to nitrocellulose membrane. The membrane was blocked with BSA at room temperature for 15 min and was incubated with primary antibody over night at 4° C. After the incubation, it was washed three times with TBS-T (Tris Buffered saline-Tween 20) and further incubated with alkaline phosphatase conjugated secondary antibody (Jackson Immunoresearch Laboratories, USA) at 1:10,000 dilution for 45 min. The membrane was finally washed three times with TBS-T and developed using the 1-step NBT-BCIP substrate (Pierce, USA). Western Blot was imaged in the ImageQuant RT-ECL (GE Life Sciences, Piscataway, N.J.) and densitometric quantification was performed using the IMAL software (Blanchette Rockefeller Neurosciences Institute, Morgantown, W. Va.). For translocation assays, PKC activation was represented as the percentage of total protein in the membrane (membrane/cytosol+membrane).
Equal amounts of proteins were loaded in each lane (20 μg) for both the cytosol and membrane fractions. Activation of PKC was calculated as the percentage of total PKC in the membrane (membrane/cytosol+membrane).
Background: Immunoblotting shows a protein as a band on a membrane.

The subject of data set [4] is rat hippocampal primary neurons. Nature of the data set: Synaptic marker immunofluorescence in rat hippocampal primary neurons. Format: cell-based. The conditions noted are these: 50 nM ASPDs; 1 μM ADDLs; 20 hr. As for the experimental part: Cells were grown in two chambered slides (Nunc, USA) at low density. For immunofluorescence staining, the cells were washed with PBS (pH 7.4) and fixed with 4% paraformaldehyde for 4 min. Following fixation, the cells were blocked and permeabilized with 5% serum and 0.3% Triton X 100 in 1×PBS for 30 min. The cells were washed three times with 1×PBS and incubated with primary antibodies for 1 hr at 1:100 dilution. The incubation slides were then washed again three times in 1×PBS and were incubated with the FITC anti-rabbit IgG and Rhodamine anti-mouse IgG for 1 hr at 1:400 dilution. The cells were further washed and treated with DAPI (4′,6-diamidino-2′-phenylindole, dihydrochloride) (Thermo Scientific, USA) to stain the nucleus. Finally, the slides were washed and mounted in Pro Long Gold antifade mounting solution (Invitrogen, USA) and were viewed under the LSM 710 Meta confocal microscope (Zeiss) at 350 nm, 490 nm, and 540 nm excitation and 470 nm, 525 nm, and 625 nm emission for DAPI, FITC, and Rhodamine respectively. Six individual fields at 63× oil lens magnification were analyzed for the mean fluorescence intensity (MFI) in each channel. The co-localization correlation generated by the ZEN software (Zeiss).
To estimate the synaptic damage caused by the ASPDs on primary hippocampal neurons, the expression of synaptophysin (a presynaptic marker) and PSD-95 (a postsynaptic marker) was measured by immunofluorescence staining. […] Following a 20 hr incubation period, the cells were stained for nucleus, PSD-95, and synaptophysin. Expression levels were calculated as the change of percentage in mean fluorescence intensity compared to untreated cells.
Primary neurons, treated and untreated, were immunostained for MAP-2, synaptophysin, and PSD-95 to determine the synaptic integrity. […] Following a 20 hr incubation period, the cells were stained for MAP-2, PSD-95, and synaptophysin as described above.

Data set [5] concerns phosphatidylserine (C2) binding site. Nature of the data set: 3H-DCPLA-ME binding to rat brain slices with competitors, film autoradiography. The protocol:
To determine the binding site of DCPLA-ME, ^3H-DCPLA-ME was incubated with rat brain slices in the absence and presence of known C1 and C2 competitors. More specifically, rat brain sections were fixed with formaldehyde, sliced, and incubated with (1) ^3H-DCPLA-ME alone; (2) ^3H-DCPLA-ME with DCPLA; (3) ^3H-DCPLA-ME with Phorbol ester; or (4) ^3H-DCPLA-ME and Bryostatin 1. After incubation, the slices were washed with a buffer made of 130 mM NaCl, 5 mM MgCl, 5 mM KCl, 1 mM EGTA, and 0.1% bovine serum albumin in 10 mM HEPES-NaOH, pH 7.4, dried, and analyzed with film-autoradiography.

`CCCCC/C=C\C/C=C\CCCCCCCC(=O)O[C@H]1CC[C@@]2(C)C(=CC[C@H]3[C@@H]4CC[C@H]([C@H](C)CCCC(C)C)[C@@]4(C)CC[C@@H]32)C1` [Cholesteryl linoleate, cholesteryl linoleate]: the “PKC-ε activation (in words)” value on PKC-ε [1] is listed as “little or no activation”. The PKC-α activation at PKCα worked out at 20%.
In the case of “oAβ <100 kDa: filtrate from the 100 kDa filtration of the ASPD preparation”, the “Viability of primary neuron (Mean ± SEM)” value is listed as 76.01 ± 5.54 % of control in data set [2] (50 nM), 62.94 ± 9.53 % of control in data set [2] (500 nM) and 53.52 ± 2.43 % of control in data set [2] (1000 nM).
Compound `CCCCCC1CC1CC1CC1CCCCCCCC(=O)OC/C=C(C)/C=C/C=C(C)/C=C/C1=C(C)CCCC1(C)C` (stereo not shown) [DCPLA-retinyl ester] showed an EC50 on PKC-ε [1] (lowest concentration that activates by 50% of maximum activation) of 10 nM. The Activation on PKC-ε [1] (of PKCε at maximum) is on record as 129 % of control.
For the compound “ADDL: Aβ derived diffusible ligands prepared from Aβ1-42”, the “Viability of primary neuron (Mean ± SEM)” value in data set [2] (50 nM) was 91.35 ± 1.44 % of control; in data set [2] (500 nM) it was 79.01 ± 11.32 % of control; in data set [2] (1000 nM), 49.02 ± 7.26 % of control. In data set [2] (1 μM), this compound displayed a viability of neurons of 50.98±3.8%. In the data set on PKC-ε [3], this compound gave a PKC-ε membrane translocation of 80.82±4.025%. For the same compound, the “synaptophysin intensity compared to the control” value in data set [4] amounted to 75.64±4.84%.
Consider `CCCCCCCCC1CC1CCCCCCCCOC(=O)CCCCCCCC1CC1CC1CC1CCCCC` (stereo not shown) [DCPLA-cyclopropanated oleyl ester], for which, at PKC-ε [1], the “PKC-ε activation at peak” value is listed as 140 % of control, the “concentration of maximal activation” value is 10 nM and the “Specificity ε/α” value came to 8.1.
In the case of `CCCC(=O)O[C@@H]1[C@@H](C)[C@@]2(O)[C@@H](C=C(CO)C[C@]3(O)C(=O)C(C)=C[C@@H]23)[C@@H]2C(C)(C)[C@]12OC(=O)CCC` [Phorbol ester (PdBu)], in data set [5], the “3H-DCPLA-ME binding, 30 nM competitor” value stood at 100% and the “3H-DCPLA-ME binding, 1 μM competitor” value is given as 81%.
In the case of `CCCCCC1CC1CC1CC1CCCCCCCC(=O)O` (stereo not shown) [DCPLA, cyclopropanated linoleic acid], on PKC-ε [1], the “Specificity ε/α” value turned out to be 7.4. In addition, in data set [5], the “3H-DCPLA-ME binding, 30 nM competitor” value turned out to be 86% and the “3H-DCPLA-ME binding, 1 μM competitor” value is recorded as 35%.
For `CCCCCC1CC1CC1CC1CCCCCCCC(=O)OCC` (stereo not shown) [DCPLA-ethyl ester], the “Specificity ε/α” value at PKC-ε [1] is 4.2.

The values above are taken from US10821079B2, “PKC activators and combinations thereof” (Cognitive Research Enterprises, Inc., priority 2011, dated 2020).
